Source: US9145375B2, “Quinazolinone compounds” (PRANA BIOTECHNOLOGY LIMITED, priority 2008, dated 2015)
pIC50: −log10 of the molar value.

Tests used:
Type in all cases: in vitro ADME
[1] = target: CYP2E1 (Homo sapiens, UniProt P05181); test: CYP450 inhibition, specific substrate approach in human liver microsomes: CYP2E1; parameters: using a specific substrate approach in human liver microsomes; from tissue; host or cells: human liver microsomes
Method: CYP450 Isoform Inhibition Using a Specific Substrate Approach
The present study is a “Tier 2” screen to assess potential enzyme inhibition at a test compound concentration of 20 μM using a specific substrate approach in human liver microsomes.
The substrate specific enzyme inhibition study relies on the formation of a metabolite that is mediated by a specific CYP450 isoform using human liver microsomes. In the current study, the following reactions were monitored to assess interactions with specific CYP450 isoforms. A known inhibitor of each isoform was included in each assay as a positive control. The following IC50 values have been reported in the literature using equivalent assay conditions for each CYP450 isoform:
The reaction was initiated by the addition of an NADPH-regenerating system and was quenched by the addition of acetonitrile prior to determining the concentration (and apparent rate of formation) of the specific metabolite by LC/MS.
The IC50 was deemed to be the concentration at which there was a 50% reduction in the amount of metabolite formed, relative to the maximal extent of formation.

[2] = target: T1, CYP1A2 (Homo sapiens, UniProt P05177); test: CYP450 isoform inhibition, recombinant enzymes, analysis by LCMS: CYP1A2
T1 construct: using a specific substrate approach in human liver microsomes; from tissue; host or cells: human liver microsomes
T1 sequence (P05177 1-516): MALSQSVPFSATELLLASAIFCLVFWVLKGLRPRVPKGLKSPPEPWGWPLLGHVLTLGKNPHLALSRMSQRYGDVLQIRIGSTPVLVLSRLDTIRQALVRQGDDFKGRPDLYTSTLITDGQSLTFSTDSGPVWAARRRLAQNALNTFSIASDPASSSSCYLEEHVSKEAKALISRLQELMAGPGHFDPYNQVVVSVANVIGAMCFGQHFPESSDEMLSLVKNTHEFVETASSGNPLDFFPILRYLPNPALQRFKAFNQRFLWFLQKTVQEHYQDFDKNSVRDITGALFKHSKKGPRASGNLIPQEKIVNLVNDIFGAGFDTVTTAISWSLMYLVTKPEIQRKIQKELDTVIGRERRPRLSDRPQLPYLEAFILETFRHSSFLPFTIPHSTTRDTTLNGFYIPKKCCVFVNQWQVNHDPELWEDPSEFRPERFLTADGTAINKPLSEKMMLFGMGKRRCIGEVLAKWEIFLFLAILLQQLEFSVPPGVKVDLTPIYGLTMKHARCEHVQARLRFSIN
Method: (§1) CYP450 Isoform Inhibition
(§2) Microsomes containing individual recombinant human CYP450 enzymes (Supersomes™) were incubated in the presence of a fixed concentration of a probe substrate that forms a fluorescent metabolite upon CYP450-mediated metabolism.
(§3) A known inhibitor of each CYP450 isoform was included in each assay as a positive control and its IC50 was compared to literature values for acceptance of the assay.
(§4) The inherent fluorescence of the test compound was examined under the specific assay conditions for each isoform before and after the fluorometric assay to identify any compound-specific interference due to the parent compound or metabolic products. If the background fluorescence in these samples increased due to compound-specific interference, then the CYP450 inhibition samples were quantified using LC/MS assay.

[3] = target: CYP3A4 (Homo sapiens, UniProt P08684); test: CYP450 isoform inhibition, recombinant enzymes, analysis by LCMS: CYP3A4; parameters: purchased
Method: as §1, §2, §3, §4

CYP3A4, sequence (P08684 whole entry, canonical isoform): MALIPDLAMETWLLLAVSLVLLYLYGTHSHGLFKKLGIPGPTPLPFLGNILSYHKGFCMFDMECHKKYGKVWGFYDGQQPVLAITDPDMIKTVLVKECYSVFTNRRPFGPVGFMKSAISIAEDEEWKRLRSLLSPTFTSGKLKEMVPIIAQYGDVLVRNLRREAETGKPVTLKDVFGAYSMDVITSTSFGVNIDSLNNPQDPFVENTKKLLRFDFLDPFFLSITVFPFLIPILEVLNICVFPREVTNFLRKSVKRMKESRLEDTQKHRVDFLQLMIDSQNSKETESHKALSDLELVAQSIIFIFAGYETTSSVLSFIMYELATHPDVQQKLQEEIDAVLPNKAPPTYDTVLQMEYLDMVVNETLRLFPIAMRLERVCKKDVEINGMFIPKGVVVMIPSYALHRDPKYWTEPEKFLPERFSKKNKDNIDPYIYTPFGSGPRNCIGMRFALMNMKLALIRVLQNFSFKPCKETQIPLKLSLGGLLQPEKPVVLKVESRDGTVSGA
CYP2E1, sequence (P05181 whole entry, canonical isoform): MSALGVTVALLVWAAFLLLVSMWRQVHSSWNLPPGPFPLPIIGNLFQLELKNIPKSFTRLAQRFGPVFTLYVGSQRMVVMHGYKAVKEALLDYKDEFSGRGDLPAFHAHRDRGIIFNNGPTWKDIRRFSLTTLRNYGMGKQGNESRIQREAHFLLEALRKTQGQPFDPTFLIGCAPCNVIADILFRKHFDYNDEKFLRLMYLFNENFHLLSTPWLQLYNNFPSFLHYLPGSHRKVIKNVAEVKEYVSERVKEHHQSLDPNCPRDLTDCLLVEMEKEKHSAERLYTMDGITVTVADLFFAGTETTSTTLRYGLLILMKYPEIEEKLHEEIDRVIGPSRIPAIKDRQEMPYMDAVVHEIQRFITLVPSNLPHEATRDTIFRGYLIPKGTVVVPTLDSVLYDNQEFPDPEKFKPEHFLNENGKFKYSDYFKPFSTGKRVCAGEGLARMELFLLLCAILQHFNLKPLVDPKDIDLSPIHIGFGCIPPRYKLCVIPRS

pIC50 [1] | pIC50 [2] | pIC50 [3] | Structure (SMILES)
< 4.70 | – | – | CCn1c(CN(C)C)nc2c(O)c(Cl)cc(Cl)c2c1=O.Cl [Compound F4268]
– | 4.59 | 4.86 | CNCc1nc2c(O)c(Cl)cc(Cl)c2c(=O)n1C [Compound F4161]
